Reference: ChEMBL document CHEMBL1201862, “PubChem BioAssay data set” (2004)
Calls of active or inactive are those of the source.

Tests used:
[1] = NIH-3T3 fibroblast cytotoxicity, dose response, cytotoxicity control, cell-based, fluorescence, Alamar Blue, secondary assay (AID 2327); assay type: functional;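 note: NIH-3T3 mouse fibroblasts cultured with fluconazole at 8 µg/mL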
[2] = C. albicans growth with fluconazole, confirmation, fluorescence, retest (AID 2467); assay type: functional, cell-based
[3] = molecular target: T1, Short transient receptor potential channel 4 (Mus musculus, UniProt Q9QUQ5); test: mouse TRPC4 channel activators, dose response, cell-based, HEK293 TRPC4/mu-opioid, Fluo-4 calcium (AID 434937); assay type: functional
T1 sequence (Q9QUQ5 whole entry): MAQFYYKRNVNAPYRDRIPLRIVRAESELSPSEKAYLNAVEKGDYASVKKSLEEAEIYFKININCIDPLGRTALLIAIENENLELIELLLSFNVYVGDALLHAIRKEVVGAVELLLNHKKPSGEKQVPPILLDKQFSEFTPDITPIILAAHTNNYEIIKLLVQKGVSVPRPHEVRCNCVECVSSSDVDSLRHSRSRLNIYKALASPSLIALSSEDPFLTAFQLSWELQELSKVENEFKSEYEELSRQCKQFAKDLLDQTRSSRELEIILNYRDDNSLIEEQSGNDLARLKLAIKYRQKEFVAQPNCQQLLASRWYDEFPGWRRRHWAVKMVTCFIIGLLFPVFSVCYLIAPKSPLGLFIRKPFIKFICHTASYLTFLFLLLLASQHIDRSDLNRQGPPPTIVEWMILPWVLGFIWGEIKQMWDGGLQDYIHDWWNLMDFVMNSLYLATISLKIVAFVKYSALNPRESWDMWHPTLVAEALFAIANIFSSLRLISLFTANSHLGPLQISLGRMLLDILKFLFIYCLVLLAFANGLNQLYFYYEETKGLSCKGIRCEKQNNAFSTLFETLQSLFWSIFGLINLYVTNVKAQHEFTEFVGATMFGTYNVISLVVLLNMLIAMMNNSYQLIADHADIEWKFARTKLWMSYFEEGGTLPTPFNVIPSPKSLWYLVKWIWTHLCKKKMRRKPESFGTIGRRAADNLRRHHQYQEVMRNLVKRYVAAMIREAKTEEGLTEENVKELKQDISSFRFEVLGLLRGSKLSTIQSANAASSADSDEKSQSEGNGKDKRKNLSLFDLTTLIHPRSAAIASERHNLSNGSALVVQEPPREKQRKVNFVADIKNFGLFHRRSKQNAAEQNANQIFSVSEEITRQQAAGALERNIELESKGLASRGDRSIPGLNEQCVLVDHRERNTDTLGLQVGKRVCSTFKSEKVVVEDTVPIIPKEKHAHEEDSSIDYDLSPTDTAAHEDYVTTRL

Cytochrome P450 2C19 = Cytochrome P450 2C19 (Homo sapiens, UniProt P33261); test: Cytochrome panel assay with activity outcomes. Panel member name: p450-cyp2c19 Compounds with AC50 equal or less than 10 uM are considered active; assay type: functional; conditions: read-out: AC50
Chain of Cytochrome P450 2C19 (P33261 whole entry): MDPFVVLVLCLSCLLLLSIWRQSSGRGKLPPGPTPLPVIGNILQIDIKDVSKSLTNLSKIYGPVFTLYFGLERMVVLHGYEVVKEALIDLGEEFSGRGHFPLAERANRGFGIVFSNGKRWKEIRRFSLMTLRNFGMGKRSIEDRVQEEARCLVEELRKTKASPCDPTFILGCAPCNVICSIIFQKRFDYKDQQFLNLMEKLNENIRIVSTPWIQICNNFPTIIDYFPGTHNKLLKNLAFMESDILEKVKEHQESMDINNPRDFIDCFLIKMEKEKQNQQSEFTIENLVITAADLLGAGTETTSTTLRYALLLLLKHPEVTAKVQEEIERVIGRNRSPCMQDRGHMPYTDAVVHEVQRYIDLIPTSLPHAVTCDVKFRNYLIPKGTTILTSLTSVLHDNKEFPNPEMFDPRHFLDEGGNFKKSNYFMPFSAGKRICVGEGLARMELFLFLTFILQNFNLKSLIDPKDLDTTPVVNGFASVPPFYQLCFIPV

[4] = molecular target: T2, Replicative DNA helicase DnaB (Mycobacterium tuberculosis, UniProt P9WMR3); test: DnaB intein splicing inhibitors, dose response, biochemical, cell-free fluorescence (AID 449749); assay type: functional
T2 sequence (P9WMR3 whole entry): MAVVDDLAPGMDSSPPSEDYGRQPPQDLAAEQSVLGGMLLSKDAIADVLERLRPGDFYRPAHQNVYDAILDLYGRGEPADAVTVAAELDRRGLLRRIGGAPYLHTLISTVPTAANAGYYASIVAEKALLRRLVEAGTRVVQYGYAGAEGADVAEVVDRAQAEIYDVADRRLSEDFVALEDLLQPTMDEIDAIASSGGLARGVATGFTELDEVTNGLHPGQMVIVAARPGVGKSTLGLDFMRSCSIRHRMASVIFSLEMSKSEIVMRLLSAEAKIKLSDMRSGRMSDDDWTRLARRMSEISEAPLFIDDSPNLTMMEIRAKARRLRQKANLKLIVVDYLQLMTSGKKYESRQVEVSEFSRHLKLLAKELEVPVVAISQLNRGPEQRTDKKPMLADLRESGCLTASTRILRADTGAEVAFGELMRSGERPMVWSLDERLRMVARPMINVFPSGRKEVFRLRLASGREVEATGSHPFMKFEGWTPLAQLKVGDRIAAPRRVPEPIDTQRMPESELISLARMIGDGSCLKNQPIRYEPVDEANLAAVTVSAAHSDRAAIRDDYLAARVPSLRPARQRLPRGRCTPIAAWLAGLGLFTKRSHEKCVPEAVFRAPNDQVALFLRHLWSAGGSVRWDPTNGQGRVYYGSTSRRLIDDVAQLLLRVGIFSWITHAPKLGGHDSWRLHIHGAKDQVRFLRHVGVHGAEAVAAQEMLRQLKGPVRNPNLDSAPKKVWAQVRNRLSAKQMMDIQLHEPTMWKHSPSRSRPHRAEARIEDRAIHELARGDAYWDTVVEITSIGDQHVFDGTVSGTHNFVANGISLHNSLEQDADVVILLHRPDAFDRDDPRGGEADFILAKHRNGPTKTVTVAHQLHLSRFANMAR

Vero [5] = test: cells; assay type: functional, cell-based; conditions: Chlorocebus sabaeus
Protein RecA = molecular target: T3, Protein RecA (Mycobacterium tuberculosis, UniProt P9WHJ3); test: Fluorescence Cell-Free Homogeneous Dose Retest to Identify Inhibitors of RecA-Intein Splicing Activity. [Related pubchem assays (depositor defined):AID2097, AID2223, AID489010, AID492950]; assay type: functional
T3 sequence (P9WHJ3 whole entry): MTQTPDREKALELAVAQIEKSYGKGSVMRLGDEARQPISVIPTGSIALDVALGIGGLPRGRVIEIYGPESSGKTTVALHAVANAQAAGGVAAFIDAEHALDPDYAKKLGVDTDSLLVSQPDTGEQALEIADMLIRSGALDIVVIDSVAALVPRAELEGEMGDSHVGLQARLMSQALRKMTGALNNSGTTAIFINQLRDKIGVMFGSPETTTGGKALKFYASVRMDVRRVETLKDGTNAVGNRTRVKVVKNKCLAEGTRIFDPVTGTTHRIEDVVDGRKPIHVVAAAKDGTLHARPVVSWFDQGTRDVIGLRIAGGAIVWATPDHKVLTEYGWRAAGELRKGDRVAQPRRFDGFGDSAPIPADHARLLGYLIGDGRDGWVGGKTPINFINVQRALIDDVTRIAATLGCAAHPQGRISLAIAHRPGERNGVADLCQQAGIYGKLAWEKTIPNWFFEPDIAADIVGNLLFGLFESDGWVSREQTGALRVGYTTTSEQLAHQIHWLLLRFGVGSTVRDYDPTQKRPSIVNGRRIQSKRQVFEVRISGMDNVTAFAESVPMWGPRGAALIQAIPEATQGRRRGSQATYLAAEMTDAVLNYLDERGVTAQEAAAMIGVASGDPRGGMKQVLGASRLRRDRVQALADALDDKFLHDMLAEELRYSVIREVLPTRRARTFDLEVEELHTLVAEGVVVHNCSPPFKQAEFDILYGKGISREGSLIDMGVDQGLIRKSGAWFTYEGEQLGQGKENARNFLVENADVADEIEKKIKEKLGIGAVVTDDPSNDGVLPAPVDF

Vero [6] = test: cells; assay type: functional; conditions: Chlorocebus sabaeus
Cytochrome P450 2D6 = Cytochrome P450 2D6 (Homo sapiens, UniProt P10635);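 note: CYP2D6 member of a cytochrome P450 panel assay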
Chain of Cytochrome P450 2D6 (P10635 whole entry): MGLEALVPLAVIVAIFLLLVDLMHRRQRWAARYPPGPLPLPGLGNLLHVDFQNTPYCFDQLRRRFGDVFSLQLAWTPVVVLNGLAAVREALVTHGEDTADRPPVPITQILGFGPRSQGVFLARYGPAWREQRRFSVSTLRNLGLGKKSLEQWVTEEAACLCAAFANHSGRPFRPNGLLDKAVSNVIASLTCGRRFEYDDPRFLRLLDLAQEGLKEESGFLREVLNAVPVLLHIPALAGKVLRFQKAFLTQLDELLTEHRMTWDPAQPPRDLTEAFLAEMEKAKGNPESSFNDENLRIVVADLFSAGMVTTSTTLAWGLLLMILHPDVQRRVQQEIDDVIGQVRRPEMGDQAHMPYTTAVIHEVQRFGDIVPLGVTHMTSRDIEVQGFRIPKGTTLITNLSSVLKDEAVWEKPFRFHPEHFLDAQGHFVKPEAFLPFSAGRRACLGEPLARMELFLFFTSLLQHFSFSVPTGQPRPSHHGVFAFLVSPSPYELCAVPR

Cytochrome P450 1A2 = molecular target: T4, Cytochrome P450 1A2 (Homo sapiens, UniProt P05177);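 note: PubChem cytochrome P450 panel assay, CYP1A2 panel member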
T4 sequence (P05177 whole entry): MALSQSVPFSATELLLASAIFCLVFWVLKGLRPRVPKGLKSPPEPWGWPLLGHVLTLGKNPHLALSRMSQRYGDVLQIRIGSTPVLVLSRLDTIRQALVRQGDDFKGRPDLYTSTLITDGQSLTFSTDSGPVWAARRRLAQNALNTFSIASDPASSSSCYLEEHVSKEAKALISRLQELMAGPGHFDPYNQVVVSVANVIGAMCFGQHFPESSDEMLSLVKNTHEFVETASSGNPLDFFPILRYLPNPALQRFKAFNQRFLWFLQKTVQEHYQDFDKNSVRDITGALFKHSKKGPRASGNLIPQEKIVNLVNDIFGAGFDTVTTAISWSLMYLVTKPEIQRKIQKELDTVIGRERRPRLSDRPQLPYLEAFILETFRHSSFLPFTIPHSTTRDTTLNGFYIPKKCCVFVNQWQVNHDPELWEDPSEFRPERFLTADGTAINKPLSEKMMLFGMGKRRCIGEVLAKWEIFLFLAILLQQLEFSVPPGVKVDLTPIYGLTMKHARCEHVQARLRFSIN

[7] = system: Streptococcus sp. 'group A'; test: growth inhibition of control SK(-) GAS strain, dose response, counter-screen for streptokinase expression inhibitor project, luminescence, kanamycin, BacTiterGlo, confirmation (AID 1900); assay type: functional, organism-based
BJ [8] = test: cytotoxicity toward BJ-TERT fibroblasts, dose response, cell-based, RAS-independent, luminescence (AID 1933); assay type: functional; conditions: Homo sapiens
Beta-galactosidase = Beta-galactosidase (Escherichia coli, UniProt Q8VNN2); test: PubChem AID 485352; assay type: functional
Chain of Beta-galactosidase (Q8VNN2 whole entry): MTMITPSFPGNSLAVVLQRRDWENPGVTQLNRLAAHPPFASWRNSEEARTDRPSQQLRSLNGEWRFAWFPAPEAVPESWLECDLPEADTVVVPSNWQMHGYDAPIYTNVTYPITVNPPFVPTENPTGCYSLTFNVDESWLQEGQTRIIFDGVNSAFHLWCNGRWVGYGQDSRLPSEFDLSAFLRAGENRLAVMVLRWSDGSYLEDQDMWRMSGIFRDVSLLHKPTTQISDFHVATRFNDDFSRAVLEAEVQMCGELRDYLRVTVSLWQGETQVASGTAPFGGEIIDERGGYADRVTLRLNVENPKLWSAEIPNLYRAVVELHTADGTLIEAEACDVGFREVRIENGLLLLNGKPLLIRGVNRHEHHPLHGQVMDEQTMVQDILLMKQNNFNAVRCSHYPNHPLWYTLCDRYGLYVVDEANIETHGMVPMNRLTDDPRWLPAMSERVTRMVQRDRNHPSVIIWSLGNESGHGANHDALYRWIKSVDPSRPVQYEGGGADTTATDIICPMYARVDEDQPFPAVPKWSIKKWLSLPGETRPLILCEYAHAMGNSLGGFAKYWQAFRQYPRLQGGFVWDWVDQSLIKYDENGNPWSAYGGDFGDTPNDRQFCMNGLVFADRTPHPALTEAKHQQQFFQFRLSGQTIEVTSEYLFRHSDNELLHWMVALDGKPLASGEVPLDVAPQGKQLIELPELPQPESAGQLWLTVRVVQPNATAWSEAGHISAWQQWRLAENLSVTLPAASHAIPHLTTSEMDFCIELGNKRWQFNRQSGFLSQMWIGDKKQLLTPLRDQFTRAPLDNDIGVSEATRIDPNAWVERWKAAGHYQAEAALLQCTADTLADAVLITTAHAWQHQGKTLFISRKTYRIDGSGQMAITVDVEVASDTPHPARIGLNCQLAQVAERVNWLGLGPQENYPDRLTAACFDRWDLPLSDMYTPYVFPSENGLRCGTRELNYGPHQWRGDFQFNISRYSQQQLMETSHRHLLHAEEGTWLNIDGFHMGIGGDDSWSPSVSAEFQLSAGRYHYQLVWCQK

BJ [9] = test: cells; assay type: functional, cell-based; conditions: Homo sapiens
[10] = molecular target: T5, Type-1 angiotensin II receptor (Homo sapiens, UniProt P30556); test: AT1 receptor antagonists, dose response, selectivity assay for APJ receptor antagonist project, cell-based, uHTS hits (AID 463214); assay type: functional;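 note: antagonist potency against angiotensin II stimulated AT1 response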
T5 sequence (P30556 whole entry): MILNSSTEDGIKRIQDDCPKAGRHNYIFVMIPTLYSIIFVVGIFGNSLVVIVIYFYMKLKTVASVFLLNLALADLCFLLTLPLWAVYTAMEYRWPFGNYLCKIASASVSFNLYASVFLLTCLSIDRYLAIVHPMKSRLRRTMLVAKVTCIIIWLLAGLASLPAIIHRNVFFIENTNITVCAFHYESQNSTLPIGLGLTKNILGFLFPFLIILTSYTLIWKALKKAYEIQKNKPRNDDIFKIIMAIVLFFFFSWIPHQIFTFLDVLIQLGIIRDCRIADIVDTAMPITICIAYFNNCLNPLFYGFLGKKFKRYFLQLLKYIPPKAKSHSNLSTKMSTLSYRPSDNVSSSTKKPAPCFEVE

BJ [11] = test: cytotoxicity toward BJ-TERT-LT-ST fibroblasts, dose response, cell-based, RAS-independent, luminescence (AID 1935); assay type: functional; conditions: Homo sapiens;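 note: BJ fibroblasts immortalized with TERT plus LT and ST oncogenes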
[12] = cytotoxicity toward DRD oncogenic fibroblasts, dose response, cell-based, non-viral oncogenic, luminescence (AID 1934); assay type: functional; conditions: Homo sapiens
Streptococcus = test: Group A Streptococcus viability loss, dose response, counter-screen for streptokinase expression inhibitor project, luminescence, BacTiterGlo (AID 1915); assay type: functional, organism-based;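 note: potency for reduction of bacterial viability or growth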
[13] = molecular target: Heat shock protein HSP 90-alpha (Homo sapiens, UniProt P07900); assay type: functional, organism-based

Row | Structure (SMILES) | EC50 [1] | EC50 [2] | EC50 [3] | AC50 (Cytochrome P450 2C19) | AC50 [4] | IC50 (Vero [5]) | EC50 (Protein RecA) | CC50 (Vero [6]) | AC50 (Cytochrome P450 2D6) | AC50 (Cytochrome P450 1A2) | EC50 [7] | EC50 (BJ [8]) | EC50 (Beta-galactosidase) | EC50 (BJ [9]) | IC50 [10] | EC50 (BJ [11]) | EC50 [12] | EC50 (Streptococcus) | AC50 [13]
1 | COc1ccc(C(=O)NC(=S)NNC(=O)CCc2ccccc2)cc1 | > 150 µM (inconclusive) | 2.16 µM (active) | 5.96 µM (active) | 14.1 µM (inconclusive) | > 380 µM (inactive) | 24.6 µM (active) | > 380 µM (inactive) | 24.2 µM (active) | 15.8 µM (inconclusive) | 15.8 µM (inconclusive) | – | – | – | – | – | – | – | – | –
2 | Oc1cccc2ccc(/C=C/c3ccccc3Cl)nc12 | – | – | – | – | – | – | – | – | – | – | 345 nM (active) | 12.9 µM (active) | > 40 µM (inactive) | 28.5 µM (active) | 32.3 µM (not active) | > 150 µM (inconclusive) | 32.6 µM (active) | 1.3 µM (active) | 11.6 µM (active)
